In ChEMBL document CHEMBL1140110, “Hydration of drug-DNA complexes: greater water uptake for adriamycin compared to daunomycin” (J Med Chem, 2008):

Experiments:
DNA [1] = test: Binding affinity to calf thymus DNA at 1 uM in BPES buffer by fluorescence titration relative to daunomycin; assay type: nucleic-acid assay; conditions: Bos taurus
DNA [2] = test: Binding affinity to calf thymus DNA in BPES buffer assessed as binding constant K/10^5 by fluorescence titration; assay type: nucleic-acid assay; conditions: Bos taurus

Row | fold change (FC) (DNA [1]) | K (DNA [2]) | Structure (SMILES)
1 | 2 | 605000 M⁻¹ | COc1cccc2c1C(=O)c1c(O)c3c(c(O)c1C2=O)C[C@@](O)(C(=O)CO)C[C@@H]3O[C@H]1C[C@H](N)[C@H](O)[C@H](C)O1
2 | – | 230000 M⁻¹ | COc1cccc2c1C(=O)c1c(O)c3c(c(O)c1C2=O)C[C@@](O)(C(C)=O)C[C@@H]3O[C@H]1C[C@H](N)[C@H](O)[C@H](C)O1
